Experimental data as given in patent US20190298664A1, “METHOD AND KIT FOR MYOCARDIAL REPERFUSION, AND METHOD FOR ATTENUATING OR REDUCING MYOCARDIAL REPERFUSION INJURY” (Academia Sinica, priority 2018, published 2019).

Columns and labels:
Type in all cases: in vivo, mouse
[1] = system: I/R mice; assay: Echocardiography (ejection fraction) in I/R mice; settings: 2 mg/kg IP
Method: We anesthetized the mouse with 5% isoflurane mixed with room air until loss of sensation of pain and then maintained the mouse in anesthesia status with 2% isoflurane mixed with room air through the whole procedure. The mouse's body temperature was maintained at 37° C. by a heating pad. After the mouse was intubated, we provided artificial ventilation to the mouse with a small animal ventilator. Then the chest cavity was opened at the second intercostal space and homemade chest retractors were utilized to widen the incision. We pulled the pericardium apart carefully and exposed the left anterior descending artery (LAD). A 7-0 silk was put underneath the LAD at the position of the tip of the left auricle, a 6 mm length of PE-10 tube was put on the surface of the LAD, and then a double knot was made to occlude the blood flow of LAD. The success of ligation was confirmed by […] anterior wall of the LV. For the reperfusion group, the LAD knot would be untied for the purpose of reperfusion after 1 hour of ischemia. For the sham operation group, all procedures were the same except for the knot that occluded the LAD flow. After the successful procedure, we left the silk in situ, closed the chest cavity and weaned the animal from the ventilator. At 1 day and 1 week post the indicated I/R episode, the mice were received echocardiography for evaluating the cardiac function. […]

[2] = system: myocardial protein tyrosine phosphorylation; assay: Immunoblotting of heart extracts of I/R mice (anti-pTyr, p-Paxillin, p-p130cas, p-ErbB-2); settings: 2 mg/kg IP ten min before reperfusion; four hours post-I/R
Method: (§1) We anesthetized the mouse with 5% isoflurane mixed with room air until loss of sensation of pain and then maintained the mouse in anesthesia status with 2% isoflurane mixed with room air through the whole procedure. The mouse's body temperature was maintained at 37° C. by a heating pad. After the mouse was intubated, we provided artificial ventilation to the mouse with a small animal ventilator. Then the chest cavity was opened at the second intercostal space and homemade chest retractors were utilized to widen the incision. We pulled the pericardium apart carefully and exposed the left anterior descending artery (LAD). A 7-0 silk was put underneath the LAD at the position of the tip of the left auricle, a 6 mm length of PE-10 tube was put on the surface of the LAD, and then a double knot was made to occlude the blood flow of LAD. The success of ligation was confirmed by paling the anterior wall of the LV. For the reperfusion group, the LAD knot would be untied for the purpose of reperfusion after 1 hour of ischemia. For the sham operation group, all procedures were the same except for the knot that occluded the LAD flow. After the successful procedure, we left the silk in situ, closed the chest cavity and weaned the animal from the ventilator.
Hearts from mice received different treatment were gently homogenized in ice-cold RIPA buffer [250 mM Tris-HCl pH 7.4, 750 mM NaCl, detergent mix (5% NP-40, 2.5% Na-deoxycholate and 0.5% SDS), and 1× protease inhibitor cocktail (EDTA free)] containing phosphatase inhibitors (2 mM Na3VO4, 10 mM NaF, and 10 mM Na2P2O7). The homogenates were centrifuged at 16,100×g at 4° C. for 10 minutes to remove the debris. Protein concentrations were determined by Bradford protein assay. Equal amounts of protein extract from those mice were separated by SDS-PAGE on an 8% or 10% polyacrylamide gel and then transferred to PVDF membrane. Membranes were incubated with indicated primary antibody at 4° C. overnight followed by incubated with secondary antibodies for 1 hour at room temperature. The protein abundance was detected by the signal intensity of each specific band.

[3] = system: I/R mice; assay: Myocardial infarct size (Evans blue/TTC staining) in I/R mice; settings: 2 mg/kg IP
Method: as §1
At the end of experiment, the animal was sacrificed. We opened the chest cavity and exposed the heart and aorta. The heart was perfused with 0.9% saline from the apex until the coronary vessels and myocardium turning into pale color. After saline perfusion, the LAD knot was tied again. 1 mL of 1% Evans blue dye was delivered into the heart through the aortic root by retrograde injection. The dye uniformly perfused the whole heart except in the area of the heart previously perfused by the occluded coronary artery (area at risk, AAR). Then the heart was quickly removed, washed in ice-cold 0.9% saline followed by frozen at −20° C. for 20 minutes, then cut into slices of 1 mm with heart matrix. […] The areas stained with Evans blue negative but TTC-positive (AAR), and TTC-negative area (infarct area) were all measured digitally by ImageJ software. […]

[4] = system: myocardial PTP activity; assay: Overall myocardial PTP activity by pNPP assay in heart extracts of I/R mice; settings: 2 mg/kg IP ten min before reperfusion; four hours post-I/R
Method: as §1, with “by […]” for “by paling the”, “flow. […] The released p-nitrophenolate ion is measured by spectrophotometry reading” for “flow. After”, “the absorbance at 405 nm. […]” for “the successful procedure, we left”, “[…]” for “the silk in situ, closed the chest cavity and weaned the animal from the ventilator.”

For `CC(=O)OC[C@H]1O[C@@H]([S-])[C@H](OC(C)=O)[C@@H](OC(C)=O)[C@@H]1OC(C)=O.CCP(CC)CC.[Au+]` [Auranofin, auranofin], the Cardiac ejection fraction ([1]; one day post-MI) was “significant improvement”, the “Restoration of cardiac performance judged by echocardiography” value ([1]; one week post-MI) was “sustained up to one week” and the “Decreased protein tyrosine phosphorylation in the I/R heart (anti-pTyr)” value [2] was “reversed”. The “I/R-induced decrease of pTyr signaling in Paxillin and p130Cas” value [2] was “restored”, the “I/R-suppressed phosphorylation of Tyr1248 in ErbB-2” value [2] was “restored” and the Infarct size ([3]; four hours after reperfusion, versus vehicle-only controls) was “significantly decreased”. The Infarct size ([3]; one day after reperfusion) was “smaller” and the “Overall myocardial PTP activity” value [4] was “significantly suppressed”.
